In ChEMBL document CHEMBL1129894, “Dihydroxypyrrolidines C-linked to galactose. Total synthesis of a specific inhibitor of -mannosidases” (Bioorg Med Chem Lett, 1997):
Activity calls are given as the source filed them. The calls are words filed in the database; no cut-off is given here.

Tests used:
[1] = target: T1, Beta-galactosidase (Bos taurus) (UniProt Q58D55); assay: Inhibition of the enzyme beta-galactosidase from bovine liver was determined at 1 mM concentration of the compound; No inhibition
T1 sequence (whole entry): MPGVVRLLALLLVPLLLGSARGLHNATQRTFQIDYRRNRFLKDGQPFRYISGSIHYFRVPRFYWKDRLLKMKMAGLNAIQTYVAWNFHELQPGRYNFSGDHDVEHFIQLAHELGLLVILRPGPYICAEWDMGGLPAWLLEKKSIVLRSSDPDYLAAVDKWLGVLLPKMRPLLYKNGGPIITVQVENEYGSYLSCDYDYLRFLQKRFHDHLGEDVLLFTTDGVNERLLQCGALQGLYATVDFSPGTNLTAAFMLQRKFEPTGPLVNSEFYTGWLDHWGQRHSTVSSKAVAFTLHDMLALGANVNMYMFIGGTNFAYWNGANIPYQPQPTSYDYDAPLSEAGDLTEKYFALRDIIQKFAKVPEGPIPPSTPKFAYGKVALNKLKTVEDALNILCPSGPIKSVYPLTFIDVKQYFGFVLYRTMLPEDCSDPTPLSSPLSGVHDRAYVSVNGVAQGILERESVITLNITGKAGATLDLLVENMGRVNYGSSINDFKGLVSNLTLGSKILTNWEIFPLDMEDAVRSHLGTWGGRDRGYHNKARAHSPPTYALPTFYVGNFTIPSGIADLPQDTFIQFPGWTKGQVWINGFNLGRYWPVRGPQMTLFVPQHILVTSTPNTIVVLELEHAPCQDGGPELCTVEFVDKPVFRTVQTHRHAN

[2] = target: T2, Tissue alpha-L-fucosidase (Homo sapiens) (UniProt P04066); assay: Inhibition of the enzyme alpha-L-fucosidase from bovine epididymis was determined at 1 mM concentration of the compound; No inhibition; details: Bos taurus, target entry is the homologue from another species
T2 sequence (whole entry): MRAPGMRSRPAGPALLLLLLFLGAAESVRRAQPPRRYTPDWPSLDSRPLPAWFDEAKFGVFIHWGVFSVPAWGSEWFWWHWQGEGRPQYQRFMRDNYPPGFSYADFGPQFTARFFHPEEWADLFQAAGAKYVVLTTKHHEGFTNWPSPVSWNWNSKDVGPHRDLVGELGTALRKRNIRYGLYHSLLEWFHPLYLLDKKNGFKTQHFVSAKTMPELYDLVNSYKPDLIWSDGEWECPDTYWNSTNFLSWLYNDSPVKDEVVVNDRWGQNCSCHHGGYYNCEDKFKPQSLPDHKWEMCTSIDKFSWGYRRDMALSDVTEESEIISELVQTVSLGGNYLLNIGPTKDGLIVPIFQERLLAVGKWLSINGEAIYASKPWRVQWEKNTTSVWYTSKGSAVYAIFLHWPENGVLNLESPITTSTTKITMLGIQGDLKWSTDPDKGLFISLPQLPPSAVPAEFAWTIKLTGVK

Saccharomyces cerevisiae [3] = assay: Inhibition of the enzyme alpha-glucosidase (maltase) from yeast was determined at 1 mM concentration of the compound; No inhibition
[4] = Inhibition of the enzyme amyloglucosidase from Rhizopus mold was determined at 1 mM concentration of the compound; No inhibition
Prunus dulcis = assay: Inhibition of the enzyme beta-glucosidase from almonds was determined at 1 mM concentration of the compound; No inhibition
[5] = target: Beta-galactosidase (Escherichia coli) (UniProt Q8VNN2); assay: Inhibition of the enzyme beta-galactosidase from Escherichia coli was determined at 1 mM concentration of the compound; No inhibition
Beta-galactosidase (Escherichia coli), sequence (Q8VNN2 whole entry, looked up): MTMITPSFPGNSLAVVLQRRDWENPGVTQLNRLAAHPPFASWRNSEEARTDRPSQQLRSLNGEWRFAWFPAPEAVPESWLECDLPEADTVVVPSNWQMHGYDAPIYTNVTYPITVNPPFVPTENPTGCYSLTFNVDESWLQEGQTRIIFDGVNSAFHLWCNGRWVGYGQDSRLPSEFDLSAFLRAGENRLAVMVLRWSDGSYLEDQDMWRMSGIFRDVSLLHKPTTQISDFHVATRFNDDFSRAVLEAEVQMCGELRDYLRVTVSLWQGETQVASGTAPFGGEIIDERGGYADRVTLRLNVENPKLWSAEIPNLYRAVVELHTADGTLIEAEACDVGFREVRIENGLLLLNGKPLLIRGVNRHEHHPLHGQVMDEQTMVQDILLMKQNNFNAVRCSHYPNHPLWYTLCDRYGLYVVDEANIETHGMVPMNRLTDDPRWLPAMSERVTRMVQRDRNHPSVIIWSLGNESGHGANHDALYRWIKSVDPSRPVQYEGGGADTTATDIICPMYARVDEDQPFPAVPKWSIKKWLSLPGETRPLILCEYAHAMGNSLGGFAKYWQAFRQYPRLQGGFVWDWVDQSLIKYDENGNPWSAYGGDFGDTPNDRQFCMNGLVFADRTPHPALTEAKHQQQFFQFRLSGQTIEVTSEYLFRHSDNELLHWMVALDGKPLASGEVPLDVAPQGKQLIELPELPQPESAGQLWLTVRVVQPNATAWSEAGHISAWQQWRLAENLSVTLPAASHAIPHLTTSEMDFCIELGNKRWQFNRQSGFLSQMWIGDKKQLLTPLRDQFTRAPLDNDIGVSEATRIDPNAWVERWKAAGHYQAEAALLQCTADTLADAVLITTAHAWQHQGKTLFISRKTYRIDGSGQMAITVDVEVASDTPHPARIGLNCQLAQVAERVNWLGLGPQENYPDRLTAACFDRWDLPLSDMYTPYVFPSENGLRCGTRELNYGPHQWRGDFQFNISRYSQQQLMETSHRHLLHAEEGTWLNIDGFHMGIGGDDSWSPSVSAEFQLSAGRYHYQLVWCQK

[6] = test system: Caldicellulosiruptor saccharolyticus; assay: Inhibition of the enzyme beta-glucosidase from Caldocellum saccharolyticum was determined at 1 mM concentration of the compound; No inhibition
[7] = Inhibition of the enzyme beta-galactosidase from jack beans was determined at 1 mM concentration of the compound; No inhibition
[8] = Inhibition of the enzyme alpha-mannosidase from almonds was determined at 1 mM concentration of the compound; No inhibition
[9] = target: T2, Tissue alpha-L-fucosidase (Homo sapiens); assay: Inhibition of the enzyme alpha-L-fucosidase from human placenta was determined at 1 mM concentration of the compound; No inhibition
[10] = Inhibition of the enzyme Alpha-galactosidase from Aspergillus niger was determined at 1 mM concentration of the compound; No inhibition
Aspergillus niger = assay: Inhibition of the enzyme beta-D-xylosidase from Aspergillus niger was determined at 1 mM concentration of the compound; No inhibition
Bos taurus [11] = species: Bos taurus; assay: Inhibition of the enzyme beta-N-acetylglucosaminidase from bovine epididymis A was determined at 1 mM concentration of the compound; No inhibition
[12] = target: T3, Beta-galactosidase (Aspergillus niger) (UniProt P29853); assay: Inhibition of the enzyme beta-galactosidase from Aspergillus niger was determined at 1 mM concentration of the compound; No inhibition
T3 sequence (whole entry): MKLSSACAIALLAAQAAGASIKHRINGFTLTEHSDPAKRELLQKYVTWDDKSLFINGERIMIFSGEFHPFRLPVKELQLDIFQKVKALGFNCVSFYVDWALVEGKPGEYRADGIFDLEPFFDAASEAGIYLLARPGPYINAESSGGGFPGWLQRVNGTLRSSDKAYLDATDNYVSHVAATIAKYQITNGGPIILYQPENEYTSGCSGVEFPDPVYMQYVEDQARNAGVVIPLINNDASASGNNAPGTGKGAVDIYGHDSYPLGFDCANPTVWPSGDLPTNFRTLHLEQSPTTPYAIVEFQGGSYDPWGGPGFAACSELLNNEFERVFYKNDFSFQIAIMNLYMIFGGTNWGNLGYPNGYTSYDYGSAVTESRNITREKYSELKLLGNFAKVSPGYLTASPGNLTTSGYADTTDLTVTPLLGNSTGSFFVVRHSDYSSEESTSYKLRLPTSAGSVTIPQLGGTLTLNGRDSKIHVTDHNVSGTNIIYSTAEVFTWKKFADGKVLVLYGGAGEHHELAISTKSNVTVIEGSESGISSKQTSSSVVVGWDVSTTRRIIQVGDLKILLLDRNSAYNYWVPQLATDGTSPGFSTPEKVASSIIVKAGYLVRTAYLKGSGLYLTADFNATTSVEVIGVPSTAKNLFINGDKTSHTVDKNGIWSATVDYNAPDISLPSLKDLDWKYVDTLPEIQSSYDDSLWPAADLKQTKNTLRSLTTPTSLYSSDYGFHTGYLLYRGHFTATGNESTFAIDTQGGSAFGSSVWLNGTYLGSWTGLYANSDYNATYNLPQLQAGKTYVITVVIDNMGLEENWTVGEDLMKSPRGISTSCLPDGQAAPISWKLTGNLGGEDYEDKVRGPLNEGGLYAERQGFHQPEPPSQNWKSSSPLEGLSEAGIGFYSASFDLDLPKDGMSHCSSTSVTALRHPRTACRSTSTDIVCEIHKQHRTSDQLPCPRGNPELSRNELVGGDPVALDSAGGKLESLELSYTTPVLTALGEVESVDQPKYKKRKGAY

[13] = Inhibition of the enzyme Alpha-galactosidase from coffee beans was determined at 1 mM concentration of the compound; No inhibition; details: Coffea arabica
[14] = Inhibition of the enzyme Beta-mannosidase from Helix pomatia was determined at 1 mM concentration of the compound; No inhibition
Oryza sativa = assay: Inhibition of the enzyme alpha-glucosidase (maltase) from rice was determined at 1 mM concentration of the compound; No inhibition
[15] = target: T4, Alpha-N-acetylgalactosaminidase (Homo sapiens) (UniProt P17050); assay: Inhibition of the enzyme alpha-N-acetylgalactosaminidase from chicken liver was determined at 1 mM concentration of the compound; No inhibition; details: Gallus gallus, target entry is the homologue from another species
T4 sequence (whole entry): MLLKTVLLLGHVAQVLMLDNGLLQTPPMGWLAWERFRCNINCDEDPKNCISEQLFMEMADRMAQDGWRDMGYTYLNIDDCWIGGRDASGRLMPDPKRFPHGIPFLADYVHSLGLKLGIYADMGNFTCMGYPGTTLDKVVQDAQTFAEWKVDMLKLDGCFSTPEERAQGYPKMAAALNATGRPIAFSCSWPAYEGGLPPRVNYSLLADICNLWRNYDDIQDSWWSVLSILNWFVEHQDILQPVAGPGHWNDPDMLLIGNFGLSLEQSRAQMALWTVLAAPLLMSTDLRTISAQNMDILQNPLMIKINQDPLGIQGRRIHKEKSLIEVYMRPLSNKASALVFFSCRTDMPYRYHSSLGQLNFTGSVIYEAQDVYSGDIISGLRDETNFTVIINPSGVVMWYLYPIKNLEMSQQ

Bos taurus [16] = species: Bos taurus; assay: Inhibition of the enzyme beta-N-acetylglucosaminidase from bovine epididymis B was determined at 1 mM concentration of the compound; No inhibition
jack = assay: Inhibition of the enzyme beta-N-acetylglucosaminidase from jack beans was determined at 1 mM concentration of the compound; No inhibition
Saccharomyces cerevisiae [17] = assay: Inhibition of the enzyme alpha-glucosidase (isomaltase) from baker yeast was determined at 1 mM concentration of the compound; No inhibition
[18] = Inhibition of the enzyme Alpha-galactosidase from Escherichia coli was determined at 1 mM concentration of the compound; No inhibition
[19] = Inhibition of the enzyme beta-galactosidase from Aspergillus oryzae was determined at 1 mM concentration of the compound; No inhibition
[20] = target: Glucoamylase (Aspergillus niger) (UniProt P69328); assay: Inhibition of the enzyme amyloglucosidase from Aspergillus niger was determined at 1 mM concentration of the compound; No inhibition
Glucoamylase (Aspergillus niger), sequence (P69328 whole entry): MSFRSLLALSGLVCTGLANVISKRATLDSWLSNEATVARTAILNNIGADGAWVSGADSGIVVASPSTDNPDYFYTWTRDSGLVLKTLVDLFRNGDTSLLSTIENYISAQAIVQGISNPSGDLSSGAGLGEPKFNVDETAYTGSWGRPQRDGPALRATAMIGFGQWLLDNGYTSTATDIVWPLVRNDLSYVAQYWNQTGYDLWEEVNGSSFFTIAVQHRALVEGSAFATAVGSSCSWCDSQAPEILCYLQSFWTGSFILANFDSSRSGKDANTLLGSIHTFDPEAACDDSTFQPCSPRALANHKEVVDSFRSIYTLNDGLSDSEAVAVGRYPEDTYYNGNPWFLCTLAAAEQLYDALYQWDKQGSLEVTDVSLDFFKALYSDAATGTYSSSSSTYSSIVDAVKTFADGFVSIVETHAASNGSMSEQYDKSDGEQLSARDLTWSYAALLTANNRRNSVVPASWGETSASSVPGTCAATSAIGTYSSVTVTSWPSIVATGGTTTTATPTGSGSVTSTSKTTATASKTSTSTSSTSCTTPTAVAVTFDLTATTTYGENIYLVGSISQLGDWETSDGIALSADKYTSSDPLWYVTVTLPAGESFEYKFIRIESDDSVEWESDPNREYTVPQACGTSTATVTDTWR

[21] = Inhibition of the enzyme alpha-mannosidase from almonds was determined at 1 mM concentration of the compound; Moderate inhibition

OCC1O[C@H](O)C(O)[C@@H]([C@H](O)C2NCC(O)C2O)C1O (stereo partly drawn)
inhibition [1]: inactive
inhibition [2]: inactive
inhibition (Saccharomyces cerevisiae [3]): inactive
inhibition [4]: inactive
inhibition (Prunus dulcis): inactive
inhibition [5]: inactive
inhibition [6]: inactive
inhibition [7]: inactive
inhibition [8]: inactive
inhibition [9]: inactive
inhibition [10]: inactive
inhibition (Aspergillus niger): inactive
inhibition (Bos taurus [11]): inactive
inhibition [12]: inactive
inhibition [13]: inactive
inhibition [14]: inactive
inhibition (Oryza sativa): inactive
inhibition [15]: inactive
inhibition (Bos taurus [16]): inactive
inhibition (jack): inactive
inhibition (Saccharomyces cerevisiae [17]): inactive
inhibition [18]: inactive
inhibition [19]: inactive
inhibition [20]: inactive

OCC1O[C@H](O)[C@H](O)[C@@H]([C@H](O)C2NCC(O)C2O)C1O (stereo partly drawn)
inhibition [1]: inactive
inhibition [2]: inactive
inhibition (Saccharomyces cerevisiae [3]): inactive
inhibition [4]: inactive
inhibition (Prunus dulcis): inactive
inhibition [5]: inactive
inhibition [6]: inactive
inhibition [7]: inactive
inhibition [9]: inactive
inhibition [10]: inactive
inhibition (Aspergillus niger): inactive
inhibition (Bos taurus [11]): inactive
inhibition [12]: inactive
inhibition [13]: inactive
inhibition [14]: inactive
inhibition (Oryza sativa): inactive
inhibition [15]: inactive
inhibition [21]: 27%
inhibition (Bos taurus [16]): inactive
inhibition (jack): inactive
inhibition (Saccharomyces cerevisiae [17]): inactive
inhibition [18]: inactive
inhibition [19]: inactive
inhibition [20]: inactive
